Measurements as given in the CATMoS acute toxicity set (Mansouri et al. 2021).
Several values for one entry are separate records, joined by “and”; a condition that tells them apart may be missing. Equal values may be shown once.

Experiment: rat acute oral toxicity
Settings: in vivo

SMILES	LD50
CC1(C)CC(O)CC(C)(C)N1[O]	953 mg/kg
O=C=NC1CCCCC1	335 mg/kg
CCCCCCCCCCCC[N+](C)(C)[O-]	1060 mg/kg
CC(=O)OC(C)C	3000 mg/kg
CCCN(CCC)C(=O)SCC	916 mg/kg
CCOC(=O)CCl	50 mg/kg
CC(C)OC(=O)COc1ccc(Cl)cc1Cl	375 mg/kg
CCOP(=S)(OCC)Oc1ccc([N+](=O)[O-])cc1	2.1 mg/kg
CN(C)C(=O)Nc1cccc(C(F)(F)F)c1	1450 mg/kg
CCCCCCCCC=CCCCCCCCC1=NCCN1CCO	1000 mg/kg
CC(C)C(=O)O	266 mg/kg
O=C(O)/C=C/C(=O)O	9300 mg/kg
CC(C)CCCCCCO	2980 mg/kg
CC(C)(C)c1ccc(CCOc2ncnc3ccccc23)cc1	134 mg/kg
C#CCO	20 mg/kg
NCC1CCCC(CN)C1 (centres undefined)	880 mg/kg
Nc1c(Cl)c(Cl)nc(C(=O)O)c1Cl	686 mg/kg
CCC(C)Nc1c([N+](=O)[O-])cc(C(C)(C)C)cc1[N+](=O)[O-] (centres undefined)	1050 mg/kg
O=[N+]([O-])c1ccc(Cl)cc1O	1000 mg/kg
CCOP(=O)(OCC)OC(=CCl)c1ccc(Cl)cc1Cl	9.66 mg/kg
CCC(=O)O[C@](Cc1ccccc1)(c1ccccc1)[C@H](C)CN(C)C	135 mg/kg

SMILES	LD50
ClCC(Cl)CCl	136 mg/kg
COc1ccc2c3c1O[C@H]1[C@@H](O)C=C[C@H]4[C@@H](C2)N(C)CC[C@@]341	427 mg/kg
Clc1cccc(Cl)c1	580 mg/kg
O=Cc1ccncc1	2170 mg/kg
CC(C)(N)Cc1ccccc1	151 mg/kg
N#CSCSc1nc2ccccc2s1	679 mg/kg
NC(N)=S	20 mg/kg
CC(Cc1ccc(C(C)(C)C)cc1)CN1CCCCC1 (centres undefined)	1450 mg/kg
CCOP(=S)(Oc1ccc([N+](=O)[O-])cc1)c1ccccc1 (centres undefined)	7 mg/kg
CC1=NNC(=O)N(/N=C/c2cccnc2)C1	5690 mg/kg
CCCCC(Cc1cc(C(C)(C)C)c(O)c(C(C)(C)C)c1)(C(=O)OC1CC(C)(C)N(C)C(C)(C)C1)C(=O)OC1CC(C)(C)N(C)C(C)(C)C1	1490 mg/kg
O=[N+]([O-])c1ccc(Cl)c([N+](=O)[O-])c1	640 mg/kg
CC(=O)CC(c1ccccc1)c1c(O)c2ccccc2oc1=O (centres undefined)	1.6 mg/kg
Cc1cc(C)cc(N)c1	707 mg/kg
C1=CCCC=CCCC=CCC1	1780 mg/kg
CCCCCCCCCCC(N)CO (centres undefined)	300 mg/kg
O=C1OC(=O)C2C1C1(Cl)C(Cl)=C(Cl)C2(Cl)C1(Cl)Cl (centres undefined)	2130 mg/kg
CCCCOP(=O)(OCCCC)Oc1ccccc1	2140 mg/kg
ClC1(Cl)C2(Cl)C3(Cl)C4(Cl)C(Cl)(Cl)C5(Cl)C3(Cl)C1(Cl)C5(Cl)C24Cl (centres undefined)	235 mg/kg
N#Cc1ccccc1	700 mg/kg
CCCCCCCCCc1ccc(OP(Oc2ccc(CCCCCCCCC)cc2)Oc2ccc(CCCCCCCCC)cc2)cc1	10000 mg/kg

SMILES	LD50
CCO	7230 mg/kg
Cc1ccccc1C	3520 mg/kg
OCC#CCO	104 mg/kg
C=CC[N+](C)(C)CC=C	2520 mg/kg
N#Cc1ccccc1O	300 mg/kg
CC(CC=O)CC(C)(C)C (centres undefined)	3240 mg/kg
ClC1=C(Cl)C2(Cl)C3C(Cl)OC(Cl)C3C1(Cl)C2(Cl)Cl (centres undefined)	4.8 mg/kg
O=C(O)c1cc2ccccc2cc1O	809 mg/kg
Clc1ccc(Cl)cc1	500 mg/kg
CCOC(=O)C1(c2ccccc2)CCN(C)CC1	162 mg/kg
C=CCCC	4600 mg/kg
NC(=O)c1c(F)cccc1F	1080 mg/kg
Oc1cccc(O)c1	301 mg/kg
CCCCOCCOCCOC(C)=O	6500 mg/kg
O=C=NC1CCC(CC2CCC(N=C=O)CC2)CC1 (centres undefined)	1060 mg/kg
CC(=O)C(Cl)C(=O)N(C)C (centres undefined)	275 mg/kg
CC(C)N(C(=O)CCl)c1ccccc1	710 mg/kg
c1cc[n+]2c(c1)-c1cccc[n+]1CC2	220 mg/kg and 120 mg/kg
CCCCCCCCCCCCCCCCCCN(C)C	2120 mg/kg
O=CC=Cc1ccccc1	2200 mg/kg
Nc1nc[nH]n1	1100 mg/kg

SMILES	LD50
CC(C)(c1ccc(O)cc1)c1ccc(O)cc1	3250 mg/kg
CC(C)Nc1nc(Cl)nc(NC2CC2)n1	516 mg/kg
CC#N	2490 mg/kg
CCCCCCCCCCCCCCN(C)C	1320 mg/kg
CCCCN(CCCC)C(=O)N(CCCC)CCCC	16700 mg/kg
Ic1ccccc1	1750 mg/kg
Clc1cccc(Cl)c1C(Cl)Cl	1300 mg/kg
CC(C)(C)CC(C)(C)c1ccc(OCCO)cc1	1800 mg/kg
N#C[N-2]	158 mg/kg
c1ccc(OP(Oc2ccccc2)Oc2ccccc2)cc1	444 mg/kg
O=C1CCN(c2ccccc2)N1	200 mg/kg
CCCCCCC(=O)O	7000 mg/kg
CC/C(C)=N/O[Si](C)(O/N=C(\C)CC)O/N=C(\C)CC	2450 mg/kg
CC(C)COC(=O)c1ccccc1C(=O)OCC(C)C	10400 mg/kg
CCCC1COC(Cn2cncn2)(c2ccc(Cl)cc2Cl)O1 (centres undefined)	1500 mg/kg
CCCC=O	2490 mg/kg
CCNc1nc(Cl)nc(NC(C)(C)C#N)n1	149 mg/kg
CCO[Si](CCC#N)(OCC)OCC	5600 mg/kg
Cc1ccncc1	440 mg/kg
CCOP(=O)(OCC)OCC	1160 mg/kg
Cc1[nH]c(=O)n(C(C)(C)C)c(=O)c1Cl	1700 mg/kg
